Test results taken from patent US9776979B2, “EBI2 modulators” (Sanford-Burnham Medical Research Institute, priority 2013, dated 2017).
Where two headings read alike, the source gives them in different places.

Target: EBI2 (Homo sapiens, UniProt P32249)
Test: Cell-based luminescent assay (EBI2 modulation)
Procedure, shortened: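 Cells plated overnight at 37° C, then exposed to compound at 4-5 uM final with 80 nM 7a,25-OHC agonist for 60 min at 37° C. Luminescence read after 60 min detection at 25° C in the dark; values normalized to neutral and stimulator controls and plate-pattern corrected.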

[1] = cell-based luminescence, 7a,25-OHC final assay concentration 80 nM, 60 minutes incubation, read-out: IC50

Chain of EBI2 (P32249 whole entry): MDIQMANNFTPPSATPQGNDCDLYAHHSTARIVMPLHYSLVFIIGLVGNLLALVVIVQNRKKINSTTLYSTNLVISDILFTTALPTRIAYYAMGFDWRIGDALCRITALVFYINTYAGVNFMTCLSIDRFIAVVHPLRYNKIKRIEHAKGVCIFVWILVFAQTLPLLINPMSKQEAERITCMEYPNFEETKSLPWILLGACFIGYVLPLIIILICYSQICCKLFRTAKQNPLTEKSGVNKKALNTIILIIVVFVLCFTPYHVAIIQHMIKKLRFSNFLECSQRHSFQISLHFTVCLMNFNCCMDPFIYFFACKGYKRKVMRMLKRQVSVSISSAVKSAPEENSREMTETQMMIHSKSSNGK

Row | Structure (SMILES) | IC50 [1] [nM] | IC50 [nM]
1 | O=C(/C=C/c1ccc(F)cc1)N1CCN(S(=O)(=O)c2ccc([N+](=O)[O-])cc2)CC1 [Compound C206, (2E)-3-(4-fluorophenyl)-1-{4-[(4-nitrophenyl)sulfonyl]piperazinyl}prop-2-en-1-one] | < 100 | –
2 | O=C(c1cc2cc(Br)ccc2[nH]1)N1CCN(C(=O)c2ccc(F)cc2C(F)(F)F)CC1 [Compound C208, 5-bromoindol-2-yl 4-{[4-fluoro-2-(trifluoromethyl)phenyl]carbonyl}piperazinyl ketone] | < 100 | –
3 | O=C(/C=C/c1ccc(F)cc1)N1CCN(S(=O)(=O)c2cccc(Br)c2)CC1 [Compound C209, (2E)-1-{4-[(3-bromophenyl)sulfonyl]piperazinyl}-3-(4-fluorophenyl)prop-2-en-1-one] | < 100 | –
4 | O=C(/C=C/c1ccc(Cl)c(Cl)c1)N1CCN(Cc2ccc(F)cc2)CC1 [Compound C210, (2E)-3-(3,4-dichlorophenyl)-1-{4-[(4-fluorophenyl)methyl]piperazinyl}prop-2-en-1-one] | < 100 | –
5 | O=C(c1cc2cc(C(F)(F)F)ccc2[nH]1)N1CCN(Cc2ccc(F)cc2)CC1 [Compound C211, 4-[(4-fluorophenyl)methyl]piperazinyl 5-(trifluoromethyl)indol-2-yl ketone] | < 100 | –
6 | O=C(/C=C/c1ccc(F)cc1)N1CCN(S(=O)(=O)c2cccc(F)c2)CC1 [Compound C212, (2E)-3-(4-fluorophenyl)-1-{4-[(3-fluorophenyl)sulfonyl]piperazinyl}prop-2-en-1-one] | < 100 | –
7 | CCOc1ccc(/C=C/C(=O)N2CCN(S(=O)(=O)c3ccc(Br)cc3)CC2)cc1 [Compound C213, (2E)-1-{4-[(4-bromophenyl)sulfonyl]piperazinyl}-3-(4-ethoxyphenyl)prop-2-en-1-one] | < 100 | –
8 | O=C(/C=C/c1ccc(Cl)c(Cl)c1)N1CCN(Cc2ccc(Cl)cc2)CC1 [Compound C214, (2E)-3-(3,4-dichlorophenyl)-1-{4-[(4-chlorophenyl)methyl]piperazinyl}prop-2-en-1-one] | < 100 | –
9 | O=C(c1cc2ccc(F)cc2[nH]1)N1CCN(C(c2ccccc2)c2ccccc2)CC1 [Compound C215, 4-(diphenylmethyl)piperazinyl 6-fluoroindol-2-yl ketone] | < 100 | –
10 | O=C(C=Cc1ccc2c(c1)OCO2)N1CCN(C(=O)c2ccc(F)cc2)CC1 [Compound C216, 3-(2H-benzo[3,4-d]1,3-dioxolen-5-yl)-1-{4-[(4-fluorophenyl)carbonyl]piperazinyl}prop-2-en-1-one] | < 100 | –
11 | O=C(c1cc2cc(-c3ccccc3)ccc2[nH]1)N1CCN(C(c2ccccc2)c2ccccc2)CC1 [Compound C217, 4-(diphenylmethyl)piperazinyl 5-phenylindol-2-yl ketone] | < 100 | –
12 | O=C(/C=C/c1ccc(C(F)(F)F)cc1)N1CCN(C(=O)c2cc3cc(Cl)ccc3[nH]2)CC1 [Compound C218, (2E)-1-{4-[(5-chloroindol-2-yl)carbonyl]piperazinyl}-3-[4-(trifluoromethyl)phenyl]prop-2-en-1-one] | < 100 | –
13 | Cc1ccc2[nH]c(C(=O)N3CCN(Cc4ccc(F)cc4)CC3)cc2c1 [Compound C219, 4-[(4-fluorophenyl)methyl]piperazinyl 5-methylindol-2-yl ketone] | < 100 | –
14 | COc1ccc(-c2ccc3[nH]c(C(=O)N4CCN(C(c5ccccc5)c5ccccc5)CC4)cc3c2)cc1 [Compound C220, 4-(diphenylmethyl)piperazinyl 5-(4-methoxyphenyl)indol-2-yl ketone] | < 100 | –
15 | O=C(/C=C/c1ccc(F)cc1)N1CCN(S(=O)(=O)c2ccc3ccccc3c2)CC1 [Compound C221, (2E)-3-(4-fluorophenyl)-1-[4-(2-naphthylsulfonyl)piperazinyl]prop-2-en-1-one] | < 100 | –
16 | CCN1CCN(C(=O)/C=C/c2ccc(Br)cc2)CC1 [Compound C222, (2E)-3-(4-bromophenyl)-1-(4-ethylpiperazinyl)prop-2-en-1-one] | < 100 | –
17 | Nc1ccc2cc(C(=O)N3CCN(C(c4ccccc4)c4ccccc4)CC3)ccc2c1 [Compound C223, 6-amino(2-naphthyl) 4-(diphenylmethyl)piperazinyl ketone] | < 100 | –
18 | Cc1ccc(C#CC(=O)N2CCN(C(=O)c3ccc(F)cc3C(F)(F)F)CC2)cc1 [Compound C224, 1-(4-{[4-fluoro-2-(trifluoromethyl)phenyl]carbonyl}piperazinyl)-3-(4-methylphenyl)prop-2-yn-1-one] | < 100 | –
19 | O=C(/C=C/c1ccc(F)cc1)N1CCN(S(=O)(=O)c2cc(Cl)ccc2Cl)CC1 [Compound C225, (2E)-1-{4-[(2,5-dichlorophenyl)sulfonyl]piperazinyl}-3-(4-fluorophenyl)prop-2-en-1-one] | < 100 | –
20 | O=C(c1cc2cc(Cl)ccc2[nH]1)N1CCC(Nc2ccc(F)cc2)CC1 [Compound C226, 5-chloroindol-2-yl 4-[(4-fluorophenyl)amino]piperidyl ketone] | – | < 100
21 | Cc1cc2[nH]c(C(=O)N3CCN(C(c4ccccc4)c4ccccc4)CC3)cc2s1 [Compound C228, 4-(diphenylmethyl)piperazinyl 2-methylthiopheno[2,3-d]pyrrol-5-yl ketone] | < 100 | –
22 | O=C(c1ccccc1)C1CCN(C(=O)c2cc3cc(Cl)ccc3[nH]2)CC1 [Compound C229, 5-chloroindol-2-yl 4-(phenylcarbonyl)piperidyl ketone] | < 100 | –
23 | O=C(/C=C/c1ccc(Cl)c(Cl)c1)N1CCN(S(=O)(=O)c2ccccc2)CC1 [Compound C230, (2E)-3-(3,4-dichlorophenyl)-1-[4-(phenylsulfonyl)piperazinyl]prop-2-en-1-one] | < 100 | –
24 | O=C(C#Cc1ccc(C(F)(F)F)cc1)N1CCN(Cc2ccc(F)cc2)CC1 [Compound C231, 1-{4-[(4-fluorophenyl)methyl]piperazinyl}-3-[4-(trifluoromethyl)phenyl]prop-2-yn-1-one] | < 100 | –
25 | CCN(CC)c1ccc(C(=O)N2CCN(C(=O)c3cc4cc(Cl)ccc4[nH]3)CC2)cc1 [Compound C232, 4-{[4-(diethylamino)phenyl]carbonyl}piperazinyl 5-chloroindol-2-yl ketone] | < 100 | –
26 | CN(C)c1ccc(/C=C/C(=O)N2CCN(C(c3ccccc3)c3ccccc3)CC2)cc1 [Compound C233, (2E)-3-[4-(dimethylamino)phenyl]-1-[4-(diphenylmethyl)piperazinyl]prop-2-en-1-one] | < 100 | –
27 | O=C(C=Cc1ccc2c(c1)OCO2)N1CCN(C(=O)c2ccc(Br)cc2)CC1 [Compound C234, 3-(2H-benzo[3,4-d]1,3-dioxolan-5-yl)-1-{4-[(4-bromophenyl)carbonyl]piperazinyl}prop-2-en-1-one] | < 100 | –
28 | O=C(/C=C/c1ccc(F)cc1)N1CCN(S(=O)(=O)c2ccc(F)cc2)CC1 [Compound C235, (2E)-3-(4-fluorophenyl)-1-{4-[(4-fluorophenyl)sulfonyl]piperazinyl}prop-2-en-1-one] | < 100 | –
29 | COc1ccc(CN2CCN(C(=O)C#Cc3ccc(C)cc3)CC2)cc1 [Compound C236, 1-{4-[(4-methoxyphenyl)methyl]piperazinyl}-3-(4-methylphenyl)prop-2-yn-1-one] | < 100 | –
30 | O=C(/C=C/c1ccc(F)cc1)N1CCN(S(=O)(=O)c2ccccc2F)CC1 [Compound C237, (2E)-3-(4-fluorophenyl)-1-{4-[(2-fluorophenyl)sulfonyl]piperazinyl}prop-2-en-1-one] | < 100 | –
